The record followed here is patent US10123533B2, “Nitrogen containing surfactants for agricultural use” (AKZO NOBEL CHEMICALS INTERNATIONAL B.V., priority 2009, dated 2018).

Data set [1] in a line: Solubility tests of prior art betaines in concentrated glyphosate salt solutions. It counts as physicochemical. From the text:
WO2000038523 (Huntsman, U.S. Pat. No. 6,500,784, U.S. Pat. No. 6,653,257, EP1139761) discloses an amphoteric surfactant with the structure RCONH(CH2)nN^+R^12CH2COO^− where R^1 is alkyl or hydroxyl alkyl group with C1 to C4 and n=2-4, and discloses a betaine with the structure R R^12N^+CH2COO^− where R^1 is alkyl or hydroxyl alkyl group with C1 to C4. The amphoterics disclosed there mainly functioned as a co-surfactant to solubilize a ether carboxylate in to concentrated glyphosate systems. In the context of the document, there was no mention of bioefficacy of betaines or other amphoteric surfactants by themselves. […] However, without proper testing of individual surfactant, it is not possible to determine whether the effect seen in the mixture of three surfactants comes from the claimed surfactant or the other two surfactants. Moreover, no actual bioefficacy data and especially no data are provided on the degree of “overall kill” provided in the absence of surfactants and in the presence of surfactants; without such data it is not possible to determine whether or not the claimed alkyl amido betaine was effective in enhancing herbicidal activity of glyphosate under the conditions of the test reported. This patent requires Na ion to be <0.035% for the glyphosate formulation to be stable. Moreover, it used only IPA-glyphosate as examples. […]

Another data set deals with wheat. The data set can be described thus: Example 5 trial of glyphosate formulations on wheat. It counts as in vivo. The note with it: rate of 168 g ae/ha; glyphosate to surfactant ratio 3:1; 21DAT. The text has this:
FIG. 13 is a photo of wheat taken at 21 days after treatment with glyphosate alone, glyphosate with tallowamine-15EO, glyphosate with cocoamine-6EO betaine, and no glyphosate.
Cocoamine-6EO betaine was compared in the same trial with tallowamine-15EO as the positive control and the surfactant-free sample as negative control in glyphosate formulations. Glyphosate to surfactant ratio was 3:1.
This can be seen from the picture at FIG. 13, taken at 21DAT.

Data set [2] relates to wheat (TRIAV, a narrow leaf grass). The data set can be described thus: Green house % Control of glyphosate samples with various surfactants (Example 1), wheat. It counts as in vivo. The settings on record: WT. The text has this:
(§1) Four glyphosate samples with various surfactants were sprayed on morning glory (IPOHE, a broad leaf week) and wheat (TRIAV, a narrow leaf grass) in a green house setting. The surfactants are designated in Table 1.
(§2) The glyphosate rates of the spray solutions were 186, 372, and 743 g ae/ha (gram acid equivalent per hectare). […] Higher ratio means lower surfactant concentration. A ratio of 6.7 means the sample, at the same glyphosate concentration, has 2.2 times less surfactant than a sample with a ratio of 3.
(§3) Sample D served as a negative control, since it contained only glyphosate without added surfactant. Sample C served as a positive control since it is well known that tallowamine-15EO is an excellent surfactant to enhance glyphosate efficacy.
(§4) % Control ratings were conducted by an experienced person at 7, 14, 21, and 29 days after treatment (DAT). Digital pictures were also taken at the time of rating. Each % Control value was an average of 4 replicas.

The test system of data set [3] is morning glory (IPOHE, a broad leaf week). The data set can be described thus: Green house % Control of glyphosate samples with various surfactants (Example 1), morning glory. It counts as in vivo. The note with it: MG.
Description: as §1, §2, §3, §4

The subject of data set [4] is morning glory (IPOHE) and wheat (TRIAV). The data set can be described thus: Example 1 green house trial, overall statement on adjuvancy. The note with it: glyphosate:surfactant ratio 6.7. The class given is in vivo.
Description: as §1, §2, §4

In the next data set the test system is morning glory and wheat. The data set can be described thus: Example 3 green house trial, % Control of glyphosate formulations. It counts as in vivo. The settings on record: 930, 465 and 233 g ae/ha; 28 DAT; compared with glyphosate formulation without surfactant. The text has this:
FIG. 9 is a bar graph illustrating the % control results of applying glyphosate formulation containing oleylamphopolycarboxy glycinate, glyphosate formulation containing tallowamine-10EO, and glyphosate alone, each at 233 g ae/ha, 465 g ae/ha, and 930 g ae/ha to morning glory at 28 days after treatment.
FIG. 10 is a bar graph illustrating the % control results of applying glyphosate formulation containing oleylamphopolycarboxy glycinate, glyphosate formulation containing tallowamine-10EO, and glyphosate alone, each at 233 g ae/ha, 465 g ae/ha, and 930 g ae/ha to wheat at 28 days after treatment.
Glyphosate formulation containing oleylamphopolycarboxy glycinate (Na salt) was compared in a green house trial with glyphosate formulation containing tallowamine-10EO (as positive control) and glyphosate alone in terms of % Control. Three glyphosate rates were used, 930 g ae/ha, 465 gae/ha, and 233 g ae/ha.
The results are plotted in FIGS. 9-10.

The subject of data set [5] is morning glory (IPOHE) and winter wheat (TRZAW). The data set can be described thus: Example 2 green house trial of concentrated glyphosate samples, % control at 28 DAT. The class given is in vivo. The note with it: glyphosate:surfactant 13:1, 489 and 978 g ae/ha, vs glyphosate alone. Here is the method:
The concentrated glyphosate samples were diluted to two glyphosate rates and sprayed in a green house so that the final glyphosate rates of the spray solutions were 489 and 978 g ae/H. Three samples at two rates equals six treatments that were sprayed on each of two species, morning glory (IPOHE, a broad leaf week) and winter wheat (TRZAW, a narrow leaf grass). Two rates were employed, 978 g ae/H, and 16-30 at 489 g ae/ha.
Higher ratio means lower surfactant concentration. A ratio of 13:1 means the sample, at the same glyphosate concentration, has 4.3 times less surfactant than a sample with a ratio of 3:1.
Sample A (glyphosate with added tallowamine-15EO) served as a positive control. Sample B containing only glyphosate without added surfactant served as a negative control.
FIGS. 7-8 illustrates the % control results at 28 DAT.

On to `CCCCCCCCCCCCCCCCCC(=O)NCCC[N+](C)(C)CC(=O)[O-]` [stearyl dimethylamidopropyl betaine], for which the “amount of surfactant that could be dissolved” value in data set [1] (in a composition of 51.3% potassium glyphosate (aqueous)) was < 1.8%.

On to tallowamine-15EO, for which the control to wheat entry with wheat is “excellent control”.

Take `O=C(O)CNCP(=O)(O)O` [glyphosate sample without surfactant, glyphosate]: the control to wheat entry in the data set on wheat is given as “did not give much control”.

For the compound coco dimethylamidopropyl betaine, the “amount of surfactant that could be dissolved” value in data set [1] (in a composition of 360 g ae/l potassium glyphosate) is < 80 g/L.

As for `CC(C)N.O=C(O)CNCP(=O)(O)O` [Sample D, Glyphosate (isopropylamine salt)], the “% Control 7DAT” value in data set [2] (Glyph rate 186 g ae/h) is listed as 28%; in data set [2] (Glyph rate 372 g ae/h), 58%; in data set [2] (Glyph rate 743 g ae/h), 84%; in data set [3] (Glyph rate 186 g ae/h, average of 4 replicas) it was 55%; in data set [3] (Glyph rate 372 g ae/h), 86%; in data set [3] (Glyph rate 743 g ae/h) it was 83%. The “% Control 14 DAT” value came to 60% in data set [2] (Glyph rate 186 g ae/h); 85% in data set [2] (Glyph rate 372 g ae/h); 94% in data set [2] (Glyph rate 743 g ae/h); 68% in data set [3] (Glyph rate 186 g ae/h); 89% in data set [3] (Glyph rate 372 g ae/h); 90% in data set [3] (Glyph rate 743 g ae/h). For the same compound, the “% Control 21DAT” value worked out at 80% in data set [2] (Glyph rate 186 g ae/h); 89% in data set [2] (Glyph rate 372 g ae/h); 98% in data set [2] (Glyph rate 743 g ae/h); 79% in data set [3] (Glyph rate 186 g ae/h); 95% in data set [3] (Glyph rate 372 g ae/h); 94% in data set [3] (Glyph rate 743 g ae/h). For the same compound, the “% Control 29DAT” value came to 58% in data set [2] (Glyph rate 186 g ae/h); 89% in data set [2] (Glyph rate 372 g ae/h); 98% in data set [2] (Glyph rate 743 g ae/h); 68% in data set [3] (Glyph rate 186 g ae/h); 93% in data set [3] (Glyph rate 372 g ae/h); 91% in data set [3] (Glyph rate 743 g ae/h).

Cocodiamine trimethyl betaines: the “speed of glyphosate activity” value in data set [4] is reported as “speeded up glyphosate activity”. In data set [4] (186, 372, 743 g ae/ha), the adjuvancy for glyphosate entry was “good adjuvancy for glyphosate even at very low use rate”.

As to “oleylamphopolycarboxy glycinate (Na salt)”, the “enhancement of glyphosate efficacy” value with morning glory and wheat is recorded as “enhanced glyphosate efficacy”.

Regarding “Ethoxylated cocoamine (6EO) betaine [cocoamine-6EO betaine]”, the control to wheat entry in the data set with wheat is listed as “excellent control”.

Turning to tallow diamine trimethyl di-betaine, the “enhancement of glyphosate bioefficacy” value in data set [5] is recorded as “enhanced glyphosate bioefficacy even at very low rate”.
